Assay results from US7012099B2, “Use of substituted 4-amino-1-phenylbutan-2-ol compounds as medicaments” (Gruenenthal GmbH, priority 1999, dated 2006).
pKi: −log10 of the molar value. Structures can show the parent of a compound that is named as a salt.

Target: T1, ORL1 receptor (Homo sapiens, UniProt P41146)
T1 construct: expressed in transfected cells; host or cells: CHO (recombinant CHO-ORL1 cells), membranes
Test: ORL1 receptor binding assay using 3H-nociceptin/orphanin FQ with membranes of recombinant CHO-ORL1 cells
Details: 3H-nociceptin/orphanin FQ 0.5 nM, WGA-SPA beads, one hour at room temperature
Method: The 4-amino-1-phenylbutan-2-ol compounds of the general formula I have been studied in a receptor binding assay using ^3H-nociceptin/orphanin FQ with membranes of recombinant CHO-ORL1 cells. That test system was carried out according to the method put forward by Ardati et al. (Mol. Pharmacol., 51, 1997, p. 816–824). The concentration of ^3H-nociceptin/orphanin FQ in those tests was 0.5 nM. The binding assays were carried out using in each case 20 μg of membrane protein per 200 μl batch in 50 mM Hepes, pH 7.4, 10 mM MgCl2 and 1 mM EDTA. Binding to the ORL1 receptor was determined using in each case 1 mg of WGA-SPA beads (Amersham-Pharmacia, Freiburg) by incubation of the batch for one hour at room temperature and subsequent measurement in a Trilux scintillation counter (Wallac, Finland). The affinity is given as the Ki value.
For each of the compounds of Examples 1 to 7, the affinity for the ORL1 receptor was determined according to the mentioned molecular-pharmacological investigations.

T1 sequence (P41146 whole entry): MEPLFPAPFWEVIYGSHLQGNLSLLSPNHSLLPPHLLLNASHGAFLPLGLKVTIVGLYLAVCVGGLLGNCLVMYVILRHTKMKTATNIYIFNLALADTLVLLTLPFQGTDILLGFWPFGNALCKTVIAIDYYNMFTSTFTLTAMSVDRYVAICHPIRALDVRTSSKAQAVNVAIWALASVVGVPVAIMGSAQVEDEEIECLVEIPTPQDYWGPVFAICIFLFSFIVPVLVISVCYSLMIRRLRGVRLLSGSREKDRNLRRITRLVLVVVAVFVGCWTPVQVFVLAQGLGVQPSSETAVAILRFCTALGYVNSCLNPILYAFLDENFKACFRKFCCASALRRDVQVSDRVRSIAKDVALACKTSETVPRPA

CN(C)C(c1ccccc1)C1CCCCC1(O)Cc1ccccc1Cl (stereo not shown) [Example 1, 1-(2-Chlorobenzyl)-2-(dimethylaminophenylmethyl)cyclohexanol hydrochloride]
pKi: 5.22

CN(C)C(c1ccccc1)C1CCCCC1(O)Cc1cccc(Cl)c1 (stereo not shown) [Example 2, 1-(3-chlorobenzyl)-2-(dimethylaminophenylmethyl)cyclohexanol hydrochloride]
pKi: 5.68

CN(C)C(c1ccccc1)C1CCCCC1(O)Cc1ccc(Cl)cc1 (stereo not shown) [Example 3, 1-(4-chlorobenzyl)-2-(dimethylaminophenylmethyl)-1-cyclohexanol hydrochloride]
pKi: 5.77

CN(C)C(c1ccccc1)C1CCCCC1(O)Cc1ccc(F)c(F)c1 (stereo not shown) [Example 4, 1-(3,4-difluorobenzyl)-2-(dimethylaminophenylmethyl)cyclohexanol hydrochloride]
pKi: 5.72

CN(C)C(c1ccccc1)C1CCCCC1(O)Cc1cccc(C(F)(F)F)c1 (stereo not shown) [Example 5, 2-(dimethylaminophenylmethyl)-1-(3-trifluoromethylbenzyl)cyclohexanol hydrochloride]
pKi: 6.05

CN(C)C(c1cccs1)C1CCCCC1(O)Cc1cccc(C(F)(F)F)c1 (stereo not shown) [Example 6, 2-(dimethylaminothiophen-2-ylmethyl)-1-(3-trifluoromethylbenzyl)cyclohexanol Hydrochloride]
pKi: 6.22

CN(C)C(c1ccsc1)C1CCCCC1(O)Cc1cccc(C(F)(F)F)c1 (stereo not shown) [Example 7, 2-(dimethylaminothiophen-3-ylmethyl)-1-(3-trifluoromethylbenzyl)cyclohexanol hydrochloride]
pKi: 6.48
